Reference: paper PMC11341970 (RSC Advances, 2024)
Read-outs that look alike come from different tables or passages of the source.

Columns and labels:
hBACE 1 = hBACE 1 (Homo sapiens, UniProt P56817); assay: BACE 1 inhibition assay; assay type: biochemical
EeAChE = EeAChE (Electrophorus electricus, UniProt O42275); assay: AChE inhibition assay; assay type: biochemical
Chain of EeAChE (O42275 24-633): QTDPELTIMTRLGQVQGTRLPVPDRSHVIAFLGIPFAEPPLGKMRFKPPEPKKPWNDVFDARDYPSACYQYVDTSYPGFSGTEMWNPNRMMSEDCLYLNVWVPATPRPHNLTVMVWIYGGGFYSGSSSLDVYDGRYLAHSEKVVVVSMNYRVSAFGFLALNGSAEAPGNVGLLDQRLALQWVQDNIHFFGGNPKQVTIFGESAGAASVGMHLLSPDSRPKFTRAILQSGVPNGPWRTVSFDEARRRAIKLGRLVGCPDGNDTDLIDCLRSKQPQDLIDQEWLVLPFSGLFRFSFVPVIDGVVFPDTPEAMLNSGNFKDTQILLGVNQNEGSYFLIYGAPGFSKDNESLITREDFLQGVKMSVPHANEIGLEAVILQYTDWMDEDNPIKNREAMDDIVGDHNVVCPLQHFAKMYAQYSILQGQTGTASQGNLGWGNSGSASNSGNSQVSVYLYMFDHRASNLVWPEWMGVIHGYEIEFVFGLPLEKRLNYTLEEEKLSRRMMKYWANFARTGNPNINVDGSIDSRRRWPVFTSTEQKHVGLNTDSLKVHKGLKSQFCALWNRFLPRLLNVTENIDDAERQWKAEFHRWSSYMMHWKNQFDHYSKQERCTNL

Chain of hBACE 1 (P56817 46-501): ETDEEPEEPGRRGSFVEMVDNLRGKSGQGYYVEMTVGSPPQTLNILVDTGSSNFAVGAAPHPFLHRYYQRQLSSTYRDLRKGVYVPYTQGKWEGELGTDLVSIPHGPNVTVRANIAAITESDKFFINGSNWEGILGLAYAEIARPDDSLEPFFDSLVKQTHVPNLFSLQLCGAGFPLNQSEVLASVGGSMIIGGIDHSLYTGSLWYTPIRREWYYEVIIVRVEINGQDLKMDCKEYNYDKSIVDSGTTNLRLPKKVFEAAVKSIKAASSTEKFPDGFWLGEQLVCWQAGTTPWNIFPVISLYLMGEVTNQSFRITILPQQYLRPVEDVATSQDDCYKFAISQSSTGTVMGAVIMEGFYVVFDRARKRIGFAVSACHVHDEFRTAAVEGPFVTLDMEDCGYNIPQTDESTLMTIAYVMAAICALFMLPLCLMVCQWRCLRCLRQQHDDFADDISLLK

| SMILES | IC50 (hBACE 1; read-out: hBACE 1 IC50 (μM) ± SD, FRET assay, mean ± SD of three experiments) [µM] | IC50 (EeAChE; read-out: eeAChE IC50 (μM) ± SD, Ellman assay, mean ± SD of three experiments) [µM] | IC50 (hBACE 1) [µM] | IC50 (EeAChE) [µM] |
| --- | --- | --- | --- | --- |
| [H]/N=C(/N)NN=C(/C=C/c1ccc(F)c(F)c1)c1cccn1Cc1ccc(C(C)(C)C)cc1 [Compound 3f, (Z)-2-((E)-1-(1-(4-(tert-Butyl)benzyl)-1H-pyrrol-2-yl)-3-(3,4-difluorophenyl)allylidene)hydrazine-1-carboximidamide] | 135.9 ± 0.71 | 126.1 ± 0.71 |  |  |
| [H]/N=C(/N)NN=C(/C=C/c1ccc(C(C)(C)C)cc1)c1cccn1Cc1ccc(-c2ccccc2)cc1 [Compound 3g, (Z)-2-((E)-1-(1-([1,1′-Biphenyl]-4-ylmethyl)-1H-pyrrol-2-yl)-3-(4-(tert-butyl)phenyl)allylidene)hydrazine-1-carboximidamide] |  |  | 185.4 ± 1.84 | 76.1 ± 0.79 |
| [H]/N=C(/N)NN=C(/C=C/c1ccc(C(C)(C)C)cc1)c1cccn1Cc1ccc(C(F)(F)F)cc1 [Compound 3h, (Z)-2-((E)-3-(4-(tert-Butyl)phenyl)-1-(1-(4-(trifluoromethyl)benzyl)-1H-pyrrol-2-yl)allylidene)hydrazine-1-carboximidamide] |  |  | 179 ± 2.26 | 71.17 ± 0.49 |
| [H]/N=C(/N)NN=C(/C=C/c1ccc(C(C)(C)C)cc1)c1cccn1Cc1ccc(Br)cc1 [Compound 3i, (Z)-2-((E)-1-(1-(4-Bromobenzyl)-1H-pyrrol-2-yl)-3-(4-(tert-butyl)phenyl)allylidene)hydrazine-1-carboximidamide] |  |  | 193 ± 2.12 | 83.94 ± 0.74 |
| [H]/N=C(/N)NN=C(/C=C/c1cc(OC)cc(OC)c1)c1cccn1Cc1ccc(C(C)(C)C)cc1 [Compound 3j, (Z)-2-((E)-1-(1-(4-(tert-Butyl)benzyl)-1H-pyrrol-2-yl)-3-(3,5-dimethoxyphenyl)allylidene)hydrazine-1-carboximidamide] |  |  | 177 ± 2.83 | 69.6 ± 1.51 |
| [H]/N=C(/N)NN=C(/C=C/c1ccc(C(C)(C)C)cc1)c1cccn1Cc1ccc(C(C)(C)C)cc1 [Compound 3k, (Z)-2-((E)-1-(1-(4-(tert-Butyl)benzyl)-1H-pyrrol-2-yl)-3-(4-(tert-butyl)phenyl)allylidene)hydrazine-1-carboximidamide] |  |  | 178.2 ± 0.92 | 48.1 ± 0.52 |
| [H]/N=C(/N)NN=C(/C=C/c1ccc(Cl)cc1)c1cccn1Cc1ccc(Br)cc1 [Compound 3l, (Z)-2-((E)-1-(1-(4-Bromobenzyl)-1H-pyrrol-2-yl)-3-(4-chlorophenyl)allylidene)hydrazine-1-carboximidamide] |  |  | 192.3 ± 1.77 | 123 ± 3.11 |
